Reference: US20240150339A1, “Compounds and Their Use as PDE4 Activators” (Mironid Limited, priority 2021, published 2024)

Assays:
PDE4C3 = target: T1, PDE4C3 (Homo sapiens, UniProt Q08493); experiment: PDE assay, activation of full-length human PDE4C3 long form ([3H]cAMP radio-assay); assay type: biochemical; conditions: 30 μM test compound; mean % increase in counts over basal activity
T1 construct: Using Full-Length Human PDE4 Isoforms: Long Forms PDE4D5, PDE4C3, PDE4B1 and Short Form PDE4B2; made in house; host or cells: HEK 293 transfected with pcDNA3.1 or pDEST PDE4 expression vector; cytosol fraction of the lysate by analogy to PDE4D5
Excerpt: (§1) Experiment 1: Measurement of Modulation of Enzyme Activity by PDE4 Long Form Activators of the Present Invention Using Full-Length Human PDE4 Isoforms: Long Forms PDE4D5, PDE4C3, PDE4B1 and Short Form PDE4B2
(§2) (Marchmont, R. J. and Houslay, M. D. Biochem. J. 187: 381-92, 1980)
For transient transfection of exogenous PDE4 long isoforms, HEK 293 cells were transfected with pcDNA3.1 or pDEST™ PDE4 expression vectors using Lipofectamine LTX/Plus reagent (Invitrogen) as outlined by the manufacturer. […]
(§3) HEK-PDE4D5 cells were seeded out in 100 mm plates and incubated at 37° C. in an atmosphere of 5% CO2, 95% air. Cell lysates were prepared using KHEM buffer [50 mM KCl, 10 mM EGTA, 50 mM HEPES (pH 7.2), 1.92 mM MgCl2].
(§4) To prepare the cell lysates, the 100 mm plates containing the cells were placed on ice and washed with ice-cold PBS (phosphate buffered saline, pH 7.4). KHEM buffer (500 μl) was added to the cells. Cells were then scraped off the plate and triturated using a needle (BD Microlance™ 0.8, 40 mm). The lysed cells were then centrifuged at 2000 rpm for 10 minutes to remove cell debris and the supernatant (cell lysate containing recombinant PDE4D5) was transferred to a fresh tube and kept on ice.
(§5) The cell lysate containing recombinant PDE4D5 was transferred into a centrifuge tube and placed into an ultracentrifuge (BECKMAN COULTER) and spun at high speed (100,000 g) for 30 minutes at 4° C. The cytosol fraction was then collected and its protein amount determined using a BCA protein assay.
(§6) PDE assays were performed in thin walled V-bottomed 96-well plates. The assays were performed at a final concentration of 10 mM Tris/5 mM MgCl2 μlus PDE4D5 cell lysate cytosol fraction, containing over-expressed PDE4D5, with and without test compound. The lysate/compound mix were incubated together for 15 min at room temperature on an orbital shaker prior to addition of [^3H] cAMP (final concentration 1 μM [^3H] cAMP; Perkin Elmer) to a final volume of 50 μl per reaction. The reactions were then incubated for 10 minutes at 30° C., terminated by heating for 2 min at 95° C. and allowed to cool. Snake venom (12.5 μl of 1 mg/ml; Crotalus atrox, Sigma) was then added and the plates were agitated and incubated for a further 15 minutes at 30° C. Dowex ion exchange resin (Sigma, chloride form, 200-400 mesh; 200 μl; prepared as a 1:1 Dowex: water stock, thoroughly re-suspended and diluted 2:1 with ethanol) was then added to each well and the plates incubated for 15 min at room temperature on an orbital shaker ensuring sufficient agitation for resin suspension (550 RPM). The reaction mixture was then transferred to a 96 well filter plate (Millipore; […] pore size) and filtered into a receiving 96-well plate to remove the dowex suspension. 30 μL of the filtered solution was then transferred to the wells of an Opti-plate (Perkin Elmer) 96 well assay plate and 120 μl of Microscint 40 scintillation fluid was added. The plate was then placed on an orbital shaker for 10 min at high speed (900 RPM) to mix the sample with scintillation fluid prior to quantitation using a plate based scintillation counter (Top-Count).
(§7) The % increase in counts in the presence of test compound at a particular concentration indicates the % increase in enzyme activity at that concentration.

PDE4D5 = target: T2, PDE4D5 (Homo sapiens, UniProt Q08499); experiment: PDE assay, activation of full-length human PDE4D5 long form ([3H]cAMP radio-assay); assay type: biochemical; conditions: 30 μM test compound; mean % increase in counts over basal activity
T2 construct: Using Full-Length Human PDE4 Isoforms: Long Forms PDE4D5, PDE4C3, PDE4B1 and Short Form PDE4B2; made in house; cytosol fraction of the cell lysate, not purified
Excerpt: as §1, §2
(§8) For transient transfection of exogenous PDE4 long isoforms, HEK 293 cells were transfected with pcDNA3.1 or pDEST™ PDE4 expression vectors using Lipofectamine LTX/Plus reagent (Invitrogen) as outlined by the manufacturer.
(§9) Where stable cell lines were generated the clonal isolates were expanded to obtain cell lines that stably expressed the full-length human PDE4 long isoforms and the full length human PDE4B2 short isoform. These were called the HEK-PDE4D5, HEK-PDE4B1 and HEK-PDE4B2 cell lines, respectively.
as §3, §4, §5, §6, §7

PDE4B2 = target: T3, PDE4B2 (Homo sapiens, UniProt Q07343); experiment: PDE assay, activity of full-length human PDE4B2 short form ([3H]cAMP radio-assay); assay type: biochemical; conditions: 30 μM test compound; mean % increase in counts over basal activity
T3 construct: the full length human PDE4B2 short isoform; made in house; cytosol fraction of the lysate by analogy to PDE4D5
Excerpt: as §1, §2, §8, §9, §3, §4, §5, §6, §7

m-IMCD3 cells = experiment: Inhibition of PGE2-stimulated in vitro cyst formation in 3D culture of m-IMCD3 cells; assay type: cell-based, mouse; conditions: Mus musculus, mIMCD3, 144 h; 10 μM test compound; mean cyst area (%) compared to 100% for (DMSO + PGE2) and 0% for DMSO control; 100 nM PGE2; 6 days; read-out: % Cyst area after incubation with 10 μM test compound
How it was run: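 Mouse m-IMCD3 cells grown in 3D collagen I/Matrigel gels. From 18-24 h after plating, compound (0.1% DMSO) plus 100 nM PGE2 were added and replenished at 2-3 days. After 6 days, imaging gave mean cyst area, scaled to 100% for DMSO+PGE2 and 0% for DMSO alone.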

T2 sequence (Q08499 1-745 isoform Q08499-6): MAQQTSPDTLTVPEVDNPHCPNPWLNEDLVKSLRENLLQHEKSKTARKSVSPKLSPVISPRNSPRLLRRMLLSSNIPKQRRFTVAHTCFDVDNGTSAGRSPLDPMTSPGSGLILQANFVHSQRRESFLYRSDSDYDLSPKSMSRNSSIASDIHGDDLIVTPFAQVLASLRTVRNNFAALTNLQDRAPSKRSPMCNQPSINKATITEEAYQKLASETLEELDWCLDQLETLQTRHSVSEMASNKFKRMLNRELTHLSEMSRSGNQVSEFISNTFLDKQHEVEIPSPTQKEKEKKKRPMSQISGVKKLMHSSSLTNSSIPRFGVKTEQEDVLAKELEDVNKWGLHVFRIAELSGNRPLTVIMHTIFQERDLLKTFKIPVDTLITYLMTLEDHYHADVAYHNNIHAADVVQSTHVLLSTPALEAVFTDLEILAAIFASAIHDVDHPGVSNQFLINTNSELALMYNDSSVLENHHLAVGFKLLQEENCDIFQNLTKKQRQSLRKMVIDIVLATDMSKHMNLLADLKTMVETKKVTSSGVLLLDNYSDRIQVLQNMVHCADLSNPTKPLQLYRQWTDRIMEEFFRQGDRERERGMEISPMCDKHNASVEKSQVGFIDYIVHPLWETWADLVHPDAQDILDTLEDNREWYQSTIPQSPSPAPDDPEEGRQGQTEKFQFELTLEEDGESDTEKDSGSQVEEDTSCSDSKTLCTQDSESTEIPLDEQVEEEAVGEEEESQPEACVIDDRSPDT
T1 sequence (Q08493 1-680 isoform Q08493-3): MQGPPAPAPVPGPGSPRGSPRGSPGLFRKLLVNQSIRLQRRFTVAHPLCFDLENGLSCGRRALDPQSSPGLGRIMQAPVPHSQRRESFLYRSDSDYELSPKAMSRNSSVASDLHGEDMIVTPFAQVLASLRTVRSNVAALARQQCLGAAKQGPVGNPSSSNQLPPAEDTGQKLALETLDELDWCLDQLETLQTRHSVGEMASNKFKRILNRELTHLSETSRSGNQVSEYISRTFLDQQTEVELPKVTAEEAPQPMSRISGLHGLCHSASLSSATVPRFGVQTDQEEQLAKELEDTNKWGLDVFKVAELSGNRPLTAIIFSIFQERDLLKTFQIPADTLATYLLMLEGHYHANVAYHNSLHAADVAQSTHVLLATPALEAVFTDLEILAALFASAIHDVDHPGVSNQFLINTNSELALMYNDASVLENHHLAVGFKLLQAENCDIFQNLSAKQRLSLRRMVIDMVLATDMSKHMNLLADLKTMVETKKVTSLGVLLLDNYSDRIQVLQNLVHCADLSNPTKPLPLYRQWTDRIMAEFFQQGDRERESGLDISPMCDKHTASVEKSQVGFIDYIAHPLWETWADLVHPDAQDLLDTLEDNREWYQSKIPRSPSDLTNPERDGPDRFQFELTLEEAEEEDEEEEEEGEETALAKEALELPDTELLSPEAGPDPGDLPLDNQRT
T3 sequence (Q07343 1-564 isoform Q07343-2): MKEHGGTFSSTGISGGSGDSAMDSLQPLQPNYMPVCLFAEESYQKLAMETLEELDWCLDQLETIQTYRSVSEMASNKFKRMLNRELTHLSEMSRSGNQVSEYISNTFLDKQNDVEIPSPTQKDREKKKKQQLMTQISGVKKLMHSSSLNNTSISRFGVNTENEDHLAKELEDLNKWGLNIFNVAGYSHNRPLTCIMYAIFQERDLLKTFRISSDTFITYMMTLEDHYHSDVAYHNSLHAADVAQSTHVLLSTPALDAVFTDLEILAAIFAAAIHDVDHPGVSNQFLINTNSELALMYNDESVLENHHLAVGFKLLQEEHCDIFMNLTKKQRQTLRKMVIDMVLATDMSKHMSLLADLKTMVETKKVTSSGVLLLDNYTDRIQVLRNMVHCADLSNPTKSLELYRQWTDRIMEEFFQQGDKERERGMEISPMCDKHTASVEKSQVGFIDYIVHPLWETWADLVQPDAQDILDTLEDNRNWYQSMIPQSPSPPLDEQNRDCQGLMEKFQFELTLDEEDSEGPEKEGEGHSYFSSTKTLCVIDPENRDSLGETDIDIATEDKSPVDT

Compound: Cc1cncc(-c2nc3ccc(C(=O)N[C@H]4CCc5ccccc54)cc3s2)c1 [Example 37, (S)-N-(2,3-dihydro-1H-inden-1-yl)-2-(5-methylpyridin-3-yl)benzo[d]thiazole-6-carboxamide]
- activation at 30 µM (PDE4C3): 57%

Compound: O=C(N[C@H]1CCOc2ccccc21)c1ccc2nc(-c3cccnc3)sc2c1 [Example 9, (S)-N-(chroman-4-yl)-2-(pyridin-3-yl)benzo[d]thiazole-6-carboxamide]
- activation at 30 µM (PDE4D5): 81%
- % increase in PDE4B2 activity at 30 μM* (PDE4B2): 3%

Compound: Cc1ncccc1-c1nc2ccc(C(=O)N[C@H]3CCCc4ccccc43)cc2s1 [Example 6, (S)-2-(2-methylpyridin-3-yl)-N-(1,2,3,4-tetrahydronaphthalen-1-yl)benzo[d]thiazole-6-carboxamide]
- activation at 30 µM (PDE4C3): 38%
- activity at 10 µM (m-IMCD3 cells): 7%

Compound: Cc1cncc(-c2nc3ccc(C(=O)NCc4ccc(Cl)cc4)cc3s2)c1 [Example 31, N-(4-chlorobenzyl)-2-(5-methylpyridin-3-yl)benzo[d]thiazole-6-carboxamide]
- activation at 30 µM (PDE4C3): 76%

Compound: Cc1ccncc1-c1nc2ccc(C(=O)N[C@H]3CCCc4ccccc43)cc2s1 [Example 50, (S)-2-(4-methylpyridin-3-yl)-N-(1,2,3,4-tetrahydronaphthalen-1-yl)benzo[d]thiazole-6-carboxamide]
- activation at 30 µM (PDE4C3): 58%
- activity at 10 µM (m-IMCD3 cells): 11%
- activation at 30 µM (PDE4D5): 51%

Compound: Cc1cncc(-c2nc3ccc(C(=O)NCc4cccc(F)c4)cc3s2)c1 [Example 35, N-(3-fluorobenzyl)-2-(5-methylpyridin-3-yl)benzo[d]thiazole-6-carboxamide]
- activation at 30 µM (PDE4C3): 36%

Compound: Cc1cncc(-c2nc3ccc(C(=O)NC4CCOCC4)cc3s2)c1 [Example 46, 2-(5-methylpyridin-3-yl)-N-(tetrahydro-2H-pyran-4-yl)benzo[d]thiazole-6-carboxamide]
- activation at 30 µM (PDE4C3): 71%

Compound: Cc1cncc(-c2nc3ccc(C(=O)NC4CCCC4)cc3s2)c1 [Example 43, N-cyclopentyl-2-(5-methylpyridin-3-yl)benzo[d]thiazole-6-carboxamide]
- activation at 30 µM (PDE4C3): 68%

Compound: CCN1CCC(c2nc3c(C)cc(C(=O)N[C@H]4CCOc5ccccc54)cc3s2)CC1 [Example 187, (S)-N-(chroman-4-yl)-2-(1-ethylpiperidin-4-yl)-4-methylbenzo[d]thiazole-6-carboxamide]
- activation at 30 µM (PDE4D5): 31%
- % increase in PDE4B2 activity at 30 μM* (PDE4B2): 9%

Compound: Cc1cncc(-c2nc3ccc(C(=O)N[C@@H]4c5ccccc5C[C@@H]4O)cc3s2)c1 [Example 39, N-((1R,2S)-2-hydroxy-2,3-dihydro-1H-inden-1-yl)-2-(5-methylpyridin-3-yl)benzo[d]thiazole-6-carboxamide]
- activation at 30 µM (PDE4C3): 35%

Compound: Cc1ccncc1-c1nc2ccc(C(=O)N[C@H]3CCOc4ccccc43)cc2s1 [Example 51, (S)-N-(chroman-4-yl)-2-(4-methylpyridin-3-yl)benzo[d]thiazole-6-carboxamide]
- activation at 30 µM (PDE4C3): 112%
- activity at 10 µM (m-IMCD3 cells): -15%
- activation at 30 µM (PDE4D5): 87%

Compound: Cc1cncc(-c2nc3ccc(C(=O)N[C@@H]4CCc5ccccc54)cc3s2)c1 [Example 38, (R)-N-(2,3-dihydro-1H-inden-1-yl)-2-(5-methylpyridin-3-yl)benzo[d]thiazole-6-carboxamide]
- activation at 30 µM (PDE4C3): 32%

Compound: COc1ccc(CNC(=O)c2ccc3nc(-c4cncc(C)c4)sc3c2)cc1 [Example 33, N-(4-methoxybenzyl)-2-(5-methylpyridin-3-yl)benzo[d]thiazole-6-carboxamide]
- activation at 30 µM (PDE4C3): 82%

Compound: O=C(N[C@H]1CCOc2ccccc21)c1ccc2nc(-c3cncc(Cl)c3)sc2c1 [Example 53, (S)-2-(5-chloropyridin-3-yl)-N-(chroman-4-yl)benzo[d]thiazole-6-carboxamide]
- activation at 30 µM (PDE4C3): 46%

Compound: Cc1cncc(-c2nc3ccc(C(=O)NCc4ccc(F)cc4)cc3s2)c1 [Example 32, N-(4-fluorobenzyl)-2-(5-methylpyridin-3-yl)benzo[d]thiazole-6-carboxamide]
- activation at 30 µM (PDE4C3): 99%
- activity at 10 µM (m-IMCD3 cells): 18%
